The source of these data is PMC5807063 (Science (New York, N.Y.), 2017).

For assay [1], the target named is T1, purified HNE (human neutrophil elastase) (Homo sapiens, UniProt P08246).
T1 sequence (P08246 30-267): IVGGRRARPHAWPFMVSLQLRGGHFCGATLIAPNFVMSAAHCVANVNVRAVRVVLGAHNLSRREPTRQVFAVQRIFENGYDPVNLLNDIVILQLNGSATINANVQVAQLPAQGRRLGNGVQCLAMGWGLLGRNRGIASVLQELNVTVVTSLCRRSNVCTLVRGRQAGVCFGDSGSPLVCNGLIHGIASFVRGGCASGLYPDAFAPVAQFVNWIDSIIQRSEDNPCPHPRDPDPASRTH
The assay is described as follows: Inhibition of purified human neutrophil elastase.

A further assay has as its target T2, HNE in CF patient sputum (Homo sapiens, UniProt P08246).
T2 sequence (P08246 30-267): T1 sequence (P08246 30-267)
In words: HNE inhibition in CF patient sputum. Particulars: sputum samples of CF patients.

Take BAY 85-8501 [compound 54]: the “HNE inhibitory activity (in words)” value in assay [1] is “low IC50 values”. Moreover, at HNE in CF patient sputum, the “inhibitory activity in CF patient sputum (in words)” value was “potencies diminished”.
